Measured values from patent publication US20190031717A1, “MULTI-FUNCTIONAL FUSION POLYPEPTIDE, PREPARATION METHOD THEREOF, AND APPLICATION OF SAME” (NANJING ANJI BIOLOGICAL TECHNOLOGY CO., LTD, priority 2016, published 2019).

Experiments:
[1] = system: pneumonia fungi; test: Mouse pneumonia model, fungal; assay type: in vivo, BALB/C mice; parameters: concentration or dose not given beside the values; settings: mean ± SD
Procedure: (§1) The mouse pneumonia model was successfully established by the nose-drop method. To build the mouse pneumonia model, BALB/C mice with a body mass of 16-22 g were selected and anesthetized pneumonia chain was prepared after anesthesia with ether on day 0, day 1, and day 2. Staphylococcal fluid, adenovirus concentrate, Mycoplasma pneumoniae, Chlamydia pneumoniae, protozoa, and pneumonia fungi were slowly dripped into the nasal cavity of the mice, so that they enter the tracheobronchial. During the operation process, care was exercised to prevent bacterial fluid from flowing into the esophagus, which leads to inactivation the bacterial fluid. After successful model establishment, the polypeptides of the present invention were administered, and the results were shown in Table 5. […] The results were expressed in average value±standard deviation.

[2] = system: Esophageal cancer; test: MTT assay, tumor cells; assay type: cell-based, human; parameters: concentration or dose not given beside the values; settings: 48 hours, mean ± SD
Procedure: (§2) A variety of human tumor cells were cultured in a 37° C., 5% (volume fraction) CO2 incubator to a density of 90% or more, collected by trypsinization, resuspended in a culture medium and counted under a microscope, and the cells were harvested. The concentration was adjusted to 2.0×10^4 cells/mL, the cell suspension was inoculated into a 96-well plate at 100 μL per well and cultured overnight at 37° C. in a 5% (volume fraction) CO2 incubator. After the cells were completely adhered, the polypeptides of the present invention were added as drug-administered groups, and a culture solution containing no drug was used as a blank control group, and the culture solution was diluted to each predetermined concentration. Each dilution was separately added to a 96-well plate at 100 μL per well and incubated for 48 hours at 37° C. in a 5% (volume fraction) CO2 incubator. 20 μL of 5 mg/mL MTT was added to each well of a 96-well plate and incubation was continued for 4 h. The medium was aspirated and dissolved in 100 μL of DMSO per well. The absorbance was measured with a microplate reader at a detection wavelength of 570 nm and a reference wavelength of 630 nm, and the growth inhibition rate was calculated as follows: tumor growth inhibition rate (%)=(1−absorbance value of the administered group/unadministered group absorbance value)×100%, and the experiment was repeated 3 times independently. The results obtained from the test were expressed as mean±standard deviation, and the tumor growth inhibition rate of the unadministered group was 0. The results in Table 7 indicate that the polypeptides of the present invention have a significant inhibitory effect on the growth of various tumors (FIG. 6).

[3] = system: Gastric cancer; test: MTT assay, tumor cells; assay type: cell-based, human; parameters: concentration or dose not given beside the values; settings: 48 hours, mean ± SD
Procedure: as §2

[4] = system: Breast cancer; test: MTT assay, tumor cells; assay type: cell-based, human; parameters: concentration or dose not given beside the values; settings: 48 hours, mean ± SD
Procedure: as §2

[5] = system: Liver cancer; test: MTT assay, tumor cells; assay type: cell-based, human; parameters: concentration or dose not given beside the values; settings: 48 hours, mean ± SD
Procedure: as §2

[6] = system: Hemangioma; test: MTT assay, tumor cells; assay type: cell-based, human; parameters: concentration or dose not given beside the values; settings: 48 hours, mean ± SD
Procedure: as §2

[7] = system: Thyroid cancer; test: MTT assay, tumor cells; assay type: cell-based, human; parameters: concentration or dose not given beside the values; settings: 48 hours, mean ± SD
Procedure: as §2

[8] = system: Colorectal cancer; test: MTT assay, tumor cells; assay type: cell-based, human; parameters: concentration or dose not given beside the values; settings: 48 hours, mean ± SD
Procedure: as §2

[9] = system: Uterine cancer; test: MTT assay, tumor cells; assay type: cell-based, human; parameters: concentration or dose not given beside the values; settings: 48 hours, mean ± SD
Procedure: as §2

[10] = system: Pancreatic cancer; test: MTT assay, tumor cells; assay type: cell-based, human; parameters: concentration or dose not given beside the values; settings: 48 hours, mean ± SD
Procedure: as §2

[11] = system: Prostate cancer; test: MTT assay, tumor cells; assay type: cell-based, human; parameters: concentration or dose not given beside the values; settings: 48 hours, mean ± SD
Procedure: as §2

[12] = system: Kidney cancer; test: MTT assay, tumor cells; assay type: cell-based, human; parameters: concentration or dose not given beside the values; settings: 48 hours, mean ± SD
Procedure: as §2

[13] = system: Brain tumor; test: MTT assay, tumor cells; assay type: cell-based, human; parameters: concentration or dose not given beside the values; settings: 48 hours, mean ± SD
Procedure: as §2

[14] = system: Bladder Cancer; test: MTT assay, tumor cells; assay type: cell-based, human; parameters: concentration or dose not given beside the values; settings: 48 hours, mean ± SD
Procedure: as §2

[15] = system: Melanoma; test: MTT assay, tumor cells; assay type: cell-based, human; parameters: concentration or dose not given beside the values; settings: 48 hours, mean ± SD
Procedure: as §2

[16] = system: sarcoma; test: MTT assay, tumor cells; assay type: cell-based, human; parameters: concentration or dose not given beside the values; settings: 48 hours, mean ± SD
Procedure: as §2

[17] = system: Cervical cancer; test: MTT assay, tumor cells; assay type: cell-based, human; parameters: concentration or dose not given beside the values; settings: 48 hours, mean ± SD
Procedure: as §2

[18] = system: Ovarian cancer; test: MTT assay, tumor cells; assay type: cell-based, human; parameters: concentration or dose not given beside the values; settings: 48 hours, mean ± SD
Procedure: as §2

[19] = system: Head and neck cancer; test: MTT assay, tumor cells; assay type: cell-based, human; parameters: concentration or dose not given beside the values; settings: 48 hours, mean ± SD
Procedure: as §2

[20] = system: Pneumonia caused by lung infection; test: Mouse pneumonia model, pneumonia caused by lung infection; assay type: in vivo, BALB/C mice; parameters: concentration or dose not given beside the values; settings: mean ± SD
Procedure: as §1

[21] = system: adenovirus concentrate; test: Mouse pneumonia model, viral; assay type: in vivo, BALB/C mice; settings: mean ± SD
Procedure: as §1

[22] = system: protozoa; test: Mouse pneumonia model, protozoal; assay type: in vivo, BALB/C mice; parameters: concentration or dose not given beside the values; settings: mean ± SD
Procedure: as §1

[23] = system: Chlamydia pneumoniae; test: Mouse pneumonia model, chlamydia; assay type: in vivo, BALB/C mice; parameters: concentration or dose not given beside the values; settings: mean ± SD
Procedure: as §1

[24] = system: Mycoplasma pneumoniae; test: Mouse pneumonia model, mycoplasma; assay type: in vivo, BALB/C mice; parameters: concentration or dose not given beside the values; settings: mean ± SD
Procedure: as §1

[25] = system: Staphylococcal fluid; test: Mouse pneumonia model, bacterial; assay type: in vivo, BALB/C mice; parameters: concentration or dose not given beside the values; settings: mean ± SD
Procedure: as §1

Row | Substance | Inhibitory Effects on Various Pulmonary Infections [1] [%] | tumor growth inhibition rate, MTT Assay [2] [%] | tumor growth inhibition rate, MTT Assay [3] [%] | tumor growth inhibition rate, MTT Assay [4] [%] | tumor growth inhibition rate, MTT Assay [5] [%] | tumor growth inhibition rate, MTT Assay [6] [%] | tumor growth inhibition rate, MTT Assay [7] [%] | tumor growth inhibition rate, MTT Assay [8] [%] | tumor growth inhibition rate, MTT Assay [9] [%] | tumor growth inhibition rate, MTT Assay [10] [%] | tumor growth inhibition rate, MTT Assay [11] [%] | tumor growth inhibition rate, MTT Assay [12] [%] | tumor growth inhibition rate, MTT Assay [13] [%] | tumor growth inhibition rate, MTT Assay [14] [%] | tumor growth inhibition rate, MTT Assay [15] [%] | tumor growth inhibition rate, MTT Assay [16] [%] | tumor growth inhibition rate, MTT Assay [17] [%] | tumor growth inhibition rate, MTT Assay [18] [%] | tumor growth inhibition rate, MTT Assay [19] [%] | Inhibitory Effects on Various Pulmonary Infections [20] [%] | also measured
1 | Pro-(D-Pyr)-(D-Cys)-Bip-Arg-Gly-Glu-Gly-Gly-Gly-Gly-Arg-Gly-Asp-Gly-Gly-Gly-Gly-Ile-Val-Arg-Arg-Ala-Asp-Arg-Ala-Ala-Val-Pro [Polypeptide VI] | 52.69 ± 14.80 | 58.88 ± 13.36 | 58.09 ± 16.44 | 81.92 ± 18.58 | 65.26 ± 14.80 | 91.30 ± 20.71 | 56.04 ± 12.71 | 76.26 ± 17.30 | 69.77 ± 19.09 | 65.89 ± 18.21 | 72.33 ± 19.68 | 53.64 ± 15.44 | 61.20 ± 13.88 | 46.43 ± 10.53 | 50.89 ± 11.54 | 59.01 ± 13.39 | 67.39 ± 21.82 | 81.29 ± 18.44 | 43.46 ± 9.86 | 46.55 ± 16.44 | Inhibitory Effects on Various Pulmonary Infections [21]: 52.54 ± 13.88%; Inhibitory Effects on Various Pulmonary Infections [22]: 55.50 ± 18.21%; Inhibitory Effects on Various Pulmonary Infections [23]: 42.16 ± 13.36%; Inhibitory Effects on Various Pulmonary Infections [24]: 35.87 ± 12.71%; Inhibitory Effects on Various Pulmonary Infections [25]: 39.78 ± 9.86%
2 | Pro-(D-Pyr)-(D-Cys)-Bip-Arg-Gly-Glu-Gly-Gly-Gly-Gly-Ile-Val-Arg-Arg-Ala-Asp-Arg-Ala-Ala-Val-Pro-Gly-Gly-Gly-Gly-Arg-Gly-Asp [Polypeptide I] | 43.91 ± 15.11 | 49.07 ± 13.63 | 48.41 ± 16.78 | 68.27 ± 18.96 | 54.38 ± 15.11 | 76.08 ± 21.13 | 46.70 ± 12.97 | 63.55 ± 17.65 | 58.14 ± 19.48 | 54.91 ± 18.59 | 60.28 ± 20.08 | 44.70 ± 15.75 | 51.00 ± 14.17 | 38.69 ± 10.75 | 42.41 ± 11.78 | 49.18 ± 13.66 | 56.16 ± 22.27 | 67.74 ± 18.82 | 36.22 ± 10.06 | 38.79 ± 16.78 | Inhibitory Effects on Various Pulmonary Infections [21]: 43.78 ± 14.17%; Inhibitory Effects on Various Pulmonary Infections [22]: 46.25 ± 18.59%; Inhibitory Effects on Various Pulmonary Infections [23]: 35.13 ± 13.63%; Inhibitory Effects on Various Pulmonary Infections [24]: 29.89 ± 12.97%; Inhibitory Effects on Various Pulmonary Infections [25]: 33.15 ± 10.06%
